From publication PMC7161706 (Acta Pharmaceutica Sinica. B, 2019)

Key:
[1] = target: T1, GuC4H1 (Glycyrrhiza uralensis, UniProt A0A6B7HXZ5); assay: yeast feeding, product by HPLC-Q-TOF-MS; type: cell-based; settings: 20 μmol/L fed, 30 °C, 12 h; ATR1 reductase in WAT11
T1 sequence (A0A6B7HXZ5 1-505): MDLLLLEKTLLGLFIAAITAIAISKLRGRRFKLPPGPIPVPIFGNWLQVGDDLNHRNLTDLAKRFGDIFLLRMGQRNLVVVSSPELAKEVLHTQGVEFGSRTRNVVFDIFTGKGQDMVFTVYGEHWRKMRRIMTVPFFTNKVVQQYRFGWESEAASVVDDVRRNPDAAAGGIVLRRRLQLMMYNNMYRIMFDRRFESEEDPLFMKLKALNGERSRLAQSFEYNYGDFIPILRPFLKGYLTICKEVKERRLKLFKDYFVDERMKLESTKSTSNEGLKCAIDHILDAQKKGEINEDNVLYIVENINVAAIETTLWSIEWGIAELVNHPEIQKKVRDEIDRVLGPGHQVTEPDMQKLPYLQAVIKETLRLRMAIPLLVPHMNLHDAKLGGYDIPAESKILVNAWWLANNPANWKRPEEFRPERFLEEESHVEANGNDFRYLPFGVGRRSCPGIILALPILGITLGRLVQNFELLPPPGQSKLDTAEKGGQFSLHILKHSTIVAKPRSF

[2] = target: GuPAL1 (Glycyrrhiza uralensis, UniProt A0A6B7HYR5); assay: product by HPLC-Q-TOF-MS; type: biochemical; settings: 1 mmol/L substrate, pH 8.0, 30 °C, 10 h
GuPAL1, sequence (A0A6B7HYR5 1-783 limits assumed): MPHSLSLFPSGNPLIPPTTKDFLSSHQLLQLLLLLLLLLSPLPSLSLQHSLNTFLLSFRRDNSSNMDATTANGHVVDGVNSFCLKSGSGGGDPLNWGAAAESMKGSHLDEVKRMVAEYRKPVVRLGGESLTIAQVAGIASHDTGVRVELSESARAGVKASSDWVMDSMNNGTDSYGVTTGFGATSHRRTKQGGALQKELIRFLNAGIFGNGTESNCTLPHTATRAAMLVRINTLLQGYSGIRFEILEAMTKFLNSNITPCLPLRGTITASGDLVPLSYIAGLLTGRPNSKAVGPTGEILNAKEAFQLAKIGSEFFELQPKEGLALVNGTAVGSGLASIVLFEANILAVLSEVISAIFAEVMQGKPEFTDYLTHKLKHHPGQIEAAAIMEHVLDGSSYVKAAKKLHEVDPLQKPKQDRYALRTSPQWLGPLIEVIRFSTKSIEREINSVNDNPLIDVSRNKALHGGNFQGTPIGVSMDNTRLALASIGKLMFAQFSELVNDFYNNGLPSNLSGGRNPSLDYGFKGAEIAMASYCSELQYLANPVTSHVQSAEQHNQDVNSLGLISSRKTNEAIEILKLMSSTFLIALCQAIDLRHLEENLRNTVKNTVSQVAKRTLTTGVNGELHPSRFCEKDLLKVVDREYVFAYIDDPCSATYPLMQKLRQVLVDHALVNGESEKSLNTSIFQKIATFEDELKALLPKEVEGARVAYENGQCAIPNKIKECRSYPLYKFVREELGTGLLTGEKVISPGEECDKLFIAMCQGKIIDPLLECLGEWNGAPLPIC

## O=C(O)/C=C/c1ccccc1 [CiA, cinnamic acid]
[1]
  yeast feeding, product by HPLC-Q-TOF-MS (p-coumaric acid): GuC4H1 was able to produce p-coumaric acid upon feeding cinnamic acid and galactose

## N[C@@H](Cc1ccccc1)C(=O)O [Phe, phenylalanine]
[2]
  product by HPLC-Q-TOF-MS (cinnamic acid): incubation of the staring substrate phenylalanine with GuPAL1 yielded cinnamic acid
